Test results published in the supplement of paper PMC10627819.

What was measured:
S. aureus DSM 20231 [1] = assay: Bliss interaction score (quartile over a dose matrix) (fitness difference); higher = more antagonism (negative = synergy)
Procedure, shortened: (§1)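 The Bliss score was calculated by subtracting the expected fitness, the product of single-drug values, from the observed fitness. OD595 at entry into stationary phase, over the plate's robust no-drug mean and capped at 1, served as the fitness readout. Single-drug values were inferred from combination data, and scores are summarised by quartiles across technical, biological and donor/recipient replicates.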

S. aureus Newman [2] = assay: as above
Procedure, shortened: as §1

S. pneumoniae D39V = assay: as above
Procedure, shortened: as §1

B. subtilis 168 = assay: as above
Procedure, shortened: as §1

S. aureus DSM 20231 [3] = assay: fitness (endpoint OD595 vs no drug) (fraction); higher = more growth
Procedure, shortened: (§2)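 Fitness expresses the optical density reached at the stationary-phase transition as a fraction of the robust mean of no-drug control wells. It is capped at 1. Measurements were OD595 every 30 min for 14 h at 37 °C after inoculation of 384-well plates at OD595 0.01 (30 µl, or 55 µl for S. pneumoniae), minus the first reading.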

S. aureus Newman [4] = assay: as above
Procedure, shortened: as §2
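Throughout, for Bliss interaction score (quartile over a dose matrix): first quartile when negative (synergy) and third quartile when positive (antagonism).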

O=C(N[C@H](CO)[C@H](O)c1ccc([N+](=O)[O-])cc1)C(Cl)Cl [Chloramphenicol] + CC1=C\[C@@H](O)CC(=O)Cc2nc(co2)C(=O)N2CCC=C2C(=O)O[C@H](C(C)C)[C@H](C)/C=C/C(=O)NC\C=C\1 [Virginiamycin M1]
Conditions | Bliss interaction score
B. subtilis 168 | 0.0462
S. aureus DSM 20231 [1] | -0.0544
S. aureus Newman [2] | -0.0589
S. pneumoniae D39V | 0.0662

fitness
Conditions | first compound 0.75 µg/mL | first compound 1.5 µg/mL | first compound 3 µg/mL
S. aureus DSM 20231 [3], partner 0.0625 µg/mL | 0.735 | 0.555 | 0.084
S. aureus DSM 20231 [3], partner 0.125 µg/mL | 0.649 | 0.569 | –
S. aureus DSM 20231 [3], partner 0.25 µg/mL | 0.789 | 0.609 | 0.12
S. aureus Newman [4], partner 0.0625 µg/mL | 0.77 | 0.467 | 0.144
S. aureus Newman [4], partner 0.125 µg/mL | 0.777 | 0.474 | 0.151
S. aureus Newman [4], partner 0.25 µg/mL | 0.792 | 0.488 | 0.179

fitness, one replicate
Conditions | first compound 0.75 µg/mL | first compound 1.5 µg/mL | first compound 3 µg/mL
S. aureus DSM 20231 [3], partner 0.5 µg/mL | 0.884 | 0.601 | –
S. aureus DSM 20231 [3], partner 1 µg/mL | 0.811 | 0.535 | 0.149
S. aureus Newman [4], partner 0.5 µg/mL | 0.827 | 0.609 | 0.286
S. aureus Newman [4], partner 1 µg/mL | ≥ 1 | 0.692 | 0.26
S. aureus Newman [4], partner 2 µg/mL | 0.815 | 0.683 | 0.153

O=C(N[C@H](CO)[C@H](O)c1ccc([N+](=O)[O-])cc1)C(Cl)Cl [Chloramphenicol] + CCCCCCCCCC(=O)N[C@@H]1[C@H]([C@@H]([C@H](O[C@H]1OC2=C3C=C4C=C2OC5=C(C=C(C=C5)[C@H]([C@H]6C(=O)N[C@@H](C7=C(C(=CC(=C7)O)OC8[C@H]([C@H]([C@@H]([C@H](O8)CO)O)O)O)C9=C(C=CC(=C9)[C@H](C(=O)N6)NC(=O)[C@@H]4NC(=O)[C@@H]1C2=CC(=CC(=C2)OC2=C(C=CC(=C2)[C@H](C(=O)N[C@H](CC2=CC(=C(O3)C=C2)Cl)C(=O)N1)N)O)O)O)C(=O)O)O[C@H]1[C@@H]([C@H]([C@@H]([C@H](O1)CO)O)O)NC(=O)C)Cl)CO)O)O [Teicoplanin]
main component drawn
Conditions | Bliss interaction score
B. subtilis 168 | -0.0728
S. aureus DSM 20231 [1] | 0.143
S. aureus Newman [2] | 0.151
S. pneumoniae D39V | -0.0708

fitness, main component drawn
Conditions | first compound 0.75 µg/mL | first compound 1.5 µg/mL | first compound 3 µg/mL
S. aureus DSM 20231 [3], partner 0.1562 µg/mL | 0.813 | 0.638 | 0.129
S. aureus DSM 20231 [3], partner 0.3125 µg/mL | 0.804 | – | 0.141
S. aureus DSM 20231 [3], partner 0.625 µg/mL | 0.915 | 0.739 | 0.149
S. aureus Newman [4], partner 0.1562 µg/mL | 0.865 | 0.666 | –
S. aureus Newman [4], partner 0.3125 µg/mL | 0.876 | 0.679 | 0.112
S. aureus Newman [4], partner 0.625 µg/mL | 0.842 | 0.725 | 0.13

fitness, S. aureus Newman [4], one replicate, main component drawn
Conditions | first compound 0.75 µg/mL | first compound 1.5 µg/mL | first compound 3 µg/mL
partner 0.62 µg/mL | 0.876 | 0.634 | 0.256
partner 1.24 µg/mL | 0.872 | 0.578 | 0.191
partner 2.48 µg/mL | 0.584 | 0.512 | –

O=C(N[C@H](CO)[C@H](O)c1ccc([N+](=O)[O-])cc1)C(Cl)Cl [Chloramphenicol] + CCN(CC)CCOC(=O)c1ccc(N)cc1 [Procaine]
Conditions | Bliss interaction score
B. subtilis 168 | -0.0897
S. aureus DSM 20231 [1] | -0.0791
S. aureus Newman [2] | 0.0594
S. pneumoniae D39V | -0.0498

fitness
Conditions | partner 85.5 µg/mL | partner 171 µg/mL | partner 342 µg/mL
S. aureus DSM 20231 [3], first compound 0.75 µg/mL | 0.675 | – | 0.753
S. aureus DSM 20231 [3], first compound 1.5 µg/mL | 0.516 | 0.57 | 0.538
S. aureus DSM 20231 [3], first compound 3 µg/mL | 0.0915 | 0.0967 | 0.0943
S. aureus Newman [4], first compound 0.75 µg/mL | 0.783 | 0.787 | 0.793
S. aureus Newman [4], first compound 1.5 µg/mL | 0.531 | 0.559 | 0.577

O=C(N[C@H](CO)[C@H](O)c1ccc([N+](=O)[O-])cc1)C(Cl)Cl [Chloramphenicol] + CN1C2=CC=CC=C2N=C3C1=CC=CC3=O [Pyocyanin]
Conditions | Bliss interaction score
B. subtilis 168 | 0.049
S. aureus DSM 20231 [1] | -0.0896
S. aureus Newman [2] | -0.0632
S. pneumoniae D39V | 0.0521

fitness
Conditions | first compound 0.75 µg/mL | first compound 1.5 µg/mL | first compound 3 µg/mL
S. aureus DSM 20231 [3], partner 1.25 µg/mL | 0.645 | – | 0.0788
S. aureus DSM 20231 [3], partner 2.5 µg/mL | – | 0.321 | –
S. aureus DSM 20231 [3], partner 5 µg/mL | – | 0.332 | 0.0653
S. aureus Newman [4], partner 1.25 µg/mL | 0.741 | 0.5 | 0.174
S. aureus Newman [4], partner 2.5 µg/mL | 0.725 | 0.41 | 0.137
S. aureus Newman [4], partner 5 µg/mL | 0.333 | 0.173 | 0.0578

O=C(N[C@H](CO)[C@H](O)c1ccc([N+](=O)[O-])cc1)C(Cl)Cl [Chloramphenicol] + CN(N=O)C(=O)N[C@@H](C=O)[C@@H](O)[C@H](O)[C@H](O)CO [Streptozotocin]
Conditions | Bliss interaction score
B. subtilis 168 | 0.0462
S. aureus DSM 20231 [1] | -0.0514
S. aureus Newman [2] | 0.0386
S. pneumoniae D39V | -0.0846

fitness
Conditions | first compound 0.75 µg/mL | first compound 1.5 µg/mL | first compound 3 µg/mL
S. aureus DSM 20231 [3], partner 0.15 µg/mL | 0.677 | 0.481 | 0.104
S. aureus DSM 20231 [3], partner 0.3 µg/mL | 0.603 | 0.46 | 0.1
S. aureus DSM 20231 [3], partner 0.6 µg/mL | 0.616 | 0.385 | 0.0772
S. aureus Newman [4], partner 0.15 µg/mL | 0.705 | 0.464 | –
S. aureus Newman [4], partner 0.3 µg/mL | 0.605 | 0.402 | 0.0999
S. aureus Newman [4], partner 0.6 µg/mL | 0.47 | 0.295 | 0.0766

O=C(N[C@H](CO)[C@H](O)c1ccc([N+](=O)[O-])cc1)C(Cl)Cl [Chloramphenicol] + CN[C@@H]1[C@H](O)[C@H](NC)[C@H]2O[C@@]3(O)C(=O)C[C@@H](C)O[C@H]3O[C@@H]2[C@H]1O [Spectinomycin]
Conditions | Bliss interaction score
B. subtilis 168 | -0.0556
S. aureus DSM 20231 [1] | -0.0533
S. aureus Newman [2] | -0.107
S. pneumoniae D39V | -0.0595

fitness
Conditions | first compound 0.75 µg/mL | first compound 1.5 µg/mL | first compound 3 µg/mL
S. aureus DSM 20231 [3], partner 4 µg/mL | 0.556 | 0.539 | 0.12
S. aureus DSM 20231 [3], partner 8 µg/mL | 0.665 | 0.511 | 0.117
S. aureus DSM 20231 [3], partner 16 µg/mL | 0.657 | 0.376 | 0.15
S. aureus Newman [4], partner 4 µg/mL | 0.725 | 0.441 | 0.207
S. aureus Newman [4], partner 8 µg/mL | 0.722 | 0.42 | 0.172
S. aureus Newman [4], partner 16 µg/mL | – | – | 0.0732

fitness, one replicate
Conditions | first compound 0.75 µg/mL | first compound 1.5 µg/mL | first compound 3 µg/mL
S. aureus DSM 20231 [3], partner 32 µg/mL | 0.493 | 0.259 | 0.0743
S. aureus DSM 20231 [3], partner 64 µg/mL | 0.0559 | 0.0436 | 0.0235
S. aureus Newman [4], partner 32 µg/mL | 0.155 | 0.0442 | 0.0229
S. aureus Newman [4], partner 64 µg/mL | 0.0289 | 0.0929 | 0.0827

O=C(N[C@H](CO)[C@H](O)c1ccc([N+](=O)[O-])cc1)C(Cl)Cl [Chloramphenicol] + CN[C@H](CC(C)C)C(=O)N[C@H]1C(=O)N[C@@H](CC(N)=O)C(=O)N[C@H]2C(=O)N[C@H]3C(=O)N[C@H](C(=O)N[C@H](C(=O)O)c4cc(O)cc(O)c4-c4cc3ccc4O)[C@H](O)c3ccc(c(Cl)c3)Oc3cc2cc(c3O[C@@H]2O[C@H](CO)[C@@H](O)[C@H](O)[C@H]2O[C@H]2C[C@](C)(N)[C@H](O)[C@H](C)O2)Oc2ccc(cc2Cl)[C@H]1O [Vancomycin]
Conditions | Bliss interaction score
B. subtilis 168 | -0.0535
S. aureus DSM 20231 [1] | 0.07
S. aureus Newman [2] | 0.079
S. pneumoniae D39V | -0.0896

fitness
Conditions | first compound 0.75 µg/mL | first compound 1.5 µg/mL | first compound 3 µg/mL
S. aureus DSM 20231 [3], partner 0.1875 µg/mL | 0.669 | 0.608 | 0.165
S. aureus DSM 20231 [3], partner 0.375 µg/mL | 0.7 | 0.654 | 0.142
S. aureus DSM 20231 [3], partner 0.75 µg/mL | – | 0.652 | 0.15
S. aureus Newman [4], partner 0.1875 µg/mL | 0.874 | – | –
S. aureus Newman [4], partner 0.375 µg/mL | 0.877 | 0.607 | –
S. aureus Newman [4], partner 0.75 µg/mL | 0.836 | 0.634 | 0.23

O=C(N[C@H](CO)[C@H](O)c1ccc([N+](=O)[O-])cc1)C(Cl)Cl [Chloramphenicol] + COc1c(N2C[C@@H]3CCCN[C@@H]3C2)c(F)cc2c(=O)c(C(=O)O)cn(C3CC3)c12 [Moxifloxacin]
Conditions | Bliss interaction score
B. subtilis 168 | 0.0443
S. aureus DSM 20231 [1] | 0.148
S. aureus Newman [2] | 0.16
S. pneumoniae D39V | 0.0681

fitness
Conditions | first compound 0.75 µg/mL | first compound 1.5 µg/mL | first compound 3 µg/mL
S. aureus DSM 20231 [3], partner 0.0075 µg/mL | 0.578 | 0.633 | –
S. aureus DSM 20231 [3], partner 0.015 µg/mL | 0.714 | 0.636 | 0.113
S. aureus DSM 20231 [3], partner 0.03 µg/mL | 0.613 | 0.562 | 0.0861
S. aureus Newman [4], partner 0.0075 µg/mL | 0.738 | 0.566 | 0.214
S. aureus Newman [4], partner 0.015 µg/mL | 0.647 | 0.487 | 0.166
S. aureus Newman [4], partner 0.03 µg/mL | – | 0.364 | –

fitness, S. aureus DSM 20231 [3], one replicate
Conditions | first compound 0.75 µg/mL | first compound 1.5 µg/mL | first compound 3 µg/mL
partner 0.06 µg/mL | 0.67 | 0.635 | 0.0943
partner 0.12 µg/mL | 0.591 | 0.58 | 0.118
